Test results from patent US20240400606A1, “SMALL MOLECULE ACTIVATORS OF THE IMMUNE SYSTEM” (THE BOARD OF TRUSTEES OF THE UNIVERSITY OF ILLINOIS, priority 2021, published 2024).
“Also recorded” adds a separate entry of the source.

Experiments:
[1] = system: whole cell CS levels in T47D; test: Whole cell cholesterol sulfate quantification, T47D; assay type: cell-based; details: 6.25 μM, 72 hours
Experimental: (§1) General Whole Cell Cholesterol Sulfate Quantification. 60×15 mm tissue culture dishes were seeded with MCF-7 at 2×10^6 cells/dish or T47D at 1×10^6 cells per dish, 5 mL total media volume, and allowed to adhere overnight. Compounds of interest were dissolved in DMSO. Cells were treated with 25 μL 1.25 mM compound of interest stock (6.25 μM final compound concentration, 0.5% final DMSO concentration) or DMSO for 72 hours. To harvest, media was aspirated, and cells were washed once with PBS before detaching with trypsin. Trypsin was quenched with media. Cells were centrifuged at 300 xg for 3 minutes and supernatant was discarded. Cells were resuspended in media and counted using a Countess 3 automated cell counter (Thermo Fisher Scientific). 1.5×10^6 cells were collected, washed twice with 1 mL PBS, then pelleted and stored at −80° C. until lysis. […] 100 μL of supernatant was transferred to an empty Eppendorf tube and submitted for LC-MS/MS quantification (UIUC Metabolomics Center), along with 5 mM cholesterol sulfate sodium salt standard.
(§2) General LC-MS/MS Quantification Method. Both DHEAS and CS samples were analyzed by 6500 QTRAP (Sciex, Redwood City, CA) liquid chromatography-tandem mass spectrometry. […] Cholesterol-sulfate and DHEA-sulfate were detected by multiple reaction monitoring (MRM) at m/z 465→97.0 and 367.0→97.0 respectively. […]

[2] = system: whole cell CS levels in MDG; test: Whole cell cholesterol sulfate quantification, MDG; assay type: cell-based, human; details: 6.25 μM, 72 hours
Experimental: as §1, §2

[3] = in vivo, ip
Experimental: Tolerability Studies. Three female C57/BL6 mice were administered single IP doses (formulated in 50% DMSO/50% Peg400) of compound (2). Compound was formulated at a concentration of 20-40 mg/mL depending on dose. Mice were injected with 100 μL formulated compound. Mouse weight and lethality were tracked as indicators of compound tolerability. Tolerability of vehicle had been previously assessed.
Maximum tolerated dose mouse studies: Compound (3) was formulated in 50% DMSO, 50% Peg400 at 20 mg/mL (for 100 mg/kg injection), 25 mg/mL (for 125 mg/kg injection), or 40 mg/mL (for 200 mg/kg injection). Compound was injected intraperitoneally into female C57BL/6 mice, and the mice were monitored for signs of toxicity.

IMPAD1 = IMPAD1 (Homo sapiens (Human), UniProt Q9NX62); test: IMPAD1 in vitro activity assay; assay type: biochemical
Experimental: IMPAD1 Assay. Working stock solutions of IMPAD1 (0.1 mg/mL in 1× activity assay buffer), adenosine 3′,5′-diphosphate (PAP; dissolved first in DMSO to make stock solution then diluted to 200 μM in 1× assay buffer), and compound of interest in DMSO were prepared. Two technical replicates were assayed for each sample. Reaction mixes were prepared by mixing 6 μL IMPAD1 stock solution, 2.4 μL compound of interest stock or DMSO, 21.6 μL 1× assay buffer to make 30 μL reaction mix. Amount of reaction mix was scaled accordingly to number of samples assayed. 15 μL of reaction mix was dispensed to each well (384-well plate). 15 μL 200 μM PAP stock solution was added to each well. The reaction was incubated at 37° C. for 45 minutes, then quenched by addition of 15 μL of malachite green solution A, followed by addition of 15 μL of malachite green solution B. The plate was left at room temperature for 20 minutes for color stabilization, then absorbance was read at 620 nm. Phosphate standard curve generation was identical to that described under “Optimized Coupled Chromogenic SULT2B1b Activity Assay”, 384-well format. […]
Percent inhibition was calculated as: 100−[100×[(Phosphate produced per wellaverage, compound of interest−Phosphate produced per wellaverage, PAP)/(Phosphate produced per wellaverage, IMPAD1−Phosphate produced per wellaverage, PAP)]].

SULT2B1b = SULT2B1b (Homo sapiens (Human), UniProt O00204); test: Compound aggregation assay (LC-MS/MS assay with BSA decoy protein); assay type: biochemical; details: decoy protein BSA 0.1 mg/mL, dose response; listed as IB:10:D
Experimental: Compound Aggregation Assay. Stock solutions of DHEA (5 mM in DMSO) and compound of interest (5 mM in DMSO) were prepared. For each 60 μL reaction, to a 1.5 mL Eppendorf tube was added 26.7 μL 1× assay buffer supplemented with 0.2 mg/mL bovine serum albumin (BSA) and 1.2 μL compound of interest or DMSO. BSA-containing 1× assay buffer and compound of interest were incubated at room temperature for 5 minutes before addition of 1.2 μL of 5 mM DHEA, and 0.9 μL 6.6 mM PAPS. SULT2B1b was diluted to 1.5 μg/μL in protein storage buffer then down to 0.8 μg/μL in 1× activity assay buffer. 30 μL of 0.8 μg/μL SULT2B1b was added to each reaction. Reactions were incubated for 2 hours at 37° C. with shaking at 250 rpm. To quench, 30 μL reaction mix was added to 30 μL ice cold 0.5% HCl in MeCN, then centrifuged at 13,000 xg at room temperature for 3 min. 50 μL supernatant was transferred to an empty Eppendorf tube and submitted for LC-MS/MS quantification (UIUC Metabolomics Center). For samples run without BSA, an identical protocol was followed using 26.7 μL 1× assay buffer that had not been supplemented with BSA. Controls: Reaction mix made with DHEA, DMSO in place of compound of interest (DHEA control).
Percent inhibition was calculated as: 100−[100×(DHEA-sulfate producedcompound of interest/DHEA sulfate producedDHEA)].

Chain of SULT2B1b (O00204 whole entry): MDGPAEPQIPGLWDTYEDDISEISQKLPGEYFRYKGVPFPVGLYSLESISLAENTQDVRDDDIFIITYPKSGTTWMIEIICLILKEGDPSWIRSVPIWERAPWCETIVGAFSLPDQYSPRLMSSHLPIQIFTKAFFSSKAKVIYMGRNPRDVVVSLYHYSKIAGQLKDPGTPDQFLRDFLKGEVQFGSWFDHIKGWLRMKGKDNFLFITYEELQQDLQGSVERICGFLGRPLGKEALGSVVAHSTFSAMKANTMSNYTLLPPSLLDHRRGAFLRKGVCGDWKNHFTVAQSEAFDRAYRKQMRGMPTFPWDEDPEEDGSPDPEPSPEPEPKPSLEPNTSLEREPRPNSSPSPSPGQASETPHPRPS
Chain of IMPAD1 (Q9NX62 whole entry): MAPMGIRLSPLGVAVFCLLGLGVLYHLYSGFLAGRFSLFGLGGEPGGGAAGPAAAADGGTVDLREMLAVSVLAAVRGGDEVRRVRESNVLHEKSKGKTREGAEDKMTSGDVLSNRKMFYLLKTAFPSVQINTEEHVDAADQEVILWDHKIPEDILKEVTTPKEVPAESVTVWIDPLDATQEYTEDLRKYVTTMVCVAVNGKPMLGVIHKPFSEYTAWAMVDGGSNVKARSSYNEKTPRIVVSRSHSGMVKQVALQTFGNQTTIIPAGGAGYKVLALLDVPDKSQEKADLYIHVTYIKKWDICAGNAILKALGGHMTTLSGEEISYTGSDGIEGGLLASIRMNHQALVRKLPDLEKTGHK

| SMILES | whole cell CS levels vs DMSO [1] | whole cell CS levels vs DMSO [2] | tolerated dose ([3]; female, C57BL/6, mouse) | tolerability ([3]; mouse, 200 mg/kg) | inhibition of IMPAD1 (IMPAD1) | shift in SULT2B1b inhibition in the presence of BSA (SULT2B1b) |
| --- | --- | --- | --- | --- | --- | --- |
| C[C@]12CCC(=O)N(Cc3ccc(Br)cc3)C1=CC[C@@H]1[C@@H]2C(=O)C[C@]2(C)C(=O)CC[C@@H]12 [Compound 3, (4aR,4bS,6aS,9aS,9bS)-1-(4-bromobenzyl)-4a,6a-dimethyl-3,4,4a,6,6a,8,9,9a,9b,10-decahydro-1H-indeno[5,4-f]quinoline-2,5,7(4bH)-trione] | confirmed | confirmed | up to 200 mg/kg | not tolerated | – | – |
| C[C@]12CCC(=O)N(Cc3ccc(Cl)cc3)C1=CC[C@@H]1[C@@H]2C(=O)C[C@]2(C)C(=O)CC[C@@H]12 [Compound 1, (4aR,4bS,6aS,9aS,9bS)-1-(4-chlorobenzyl)-4a,6a-dimethyl-3,4,4a,6,6a,8,9,9a,9b,10-decahydro-1H-indeno[5,4-f]quinoline-2,5,7(4bH)-trione] | – | – | – | – | does not inhibit | minimal shift; also recorded: no change |
